Bounds are passed on as bounds.

Drawing on patent US20170266257A1, “METHODS OF TREATING TRAUMATIC BRAIN INJURY” (OXEIA BIOPHARMACEUTICALS, INC., priority 2014, published 2017), this text covers Ki, neuroprotection and motor function for three molecules.

Experiment [1] has as its target GHS-R (Homo sapiens, UniProt Q92847). As to the kind of experiment: cell based assay of GHS-R antagonist activity (Table 4).
For experiment [2], the system named is ischemic brain injury. The following applies: after ischemic brain injury; cited from earlier work.
For experiment [3], the system named is rat model of Parkinson's disease. The following applies: cited from earlier work.

Chain of GHS-R (Q92847 whole entry): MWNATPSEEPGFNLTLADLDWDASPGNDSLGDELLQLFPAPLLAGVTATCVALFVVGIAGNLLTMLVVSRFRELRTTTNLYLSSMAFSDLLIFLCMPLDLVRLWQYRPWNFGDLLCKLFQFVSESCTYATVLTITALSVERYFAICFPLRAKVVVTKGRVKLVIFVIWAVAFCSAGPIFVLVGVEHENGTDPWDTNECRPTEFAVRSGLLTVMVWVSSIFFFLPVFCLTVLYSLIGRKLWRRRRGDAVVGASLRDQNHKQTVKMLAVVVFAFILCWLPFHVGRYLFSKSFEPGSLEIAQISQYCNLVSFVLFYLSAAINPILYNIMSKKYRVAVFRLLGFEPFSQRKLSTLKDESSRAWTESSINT

Turning to “3-Diethylamino-propane-1-sulfonic acid {(R)-1-[3-(5-bromo-pyridin-3-yl)-[1,2,4]oxadiazol-5-yl]-phenyl-propyl}-amide [Compound 103]”, the Ki in experiment [1] lay within 0.1 to 0.5 µM.
`CCN(CC)CCCS(=O)(=O)N[C@H](CCc1ccccc1)c1nc(-c2cncn2C)n[nH]1` [Compound 135] showed a Ki in experiment [1] of under 0.1 µM.
For the molecule `C=CC[C@]12CCCN1C(=O)CNC2=O` [NNZ-2591, cyclo-L-glycyl-L-2-allylproline], the neuroprotection result in experiment [2] is given as “neuroprotective”. Moreover, the motor function entry in experiment [3] is “improves motor function”.
